Laboratory results taken from patent EP3818828A1 (priority 2019, dated 2021).
Several values for one entry are separate records, joined by “and”; a condition that tells them apart may be missing. Identical values can stand only once.

Assays:
Oidium lini = assay: Field efficiency test, flax powdery mildew; type: in vivo; details: 0.50 mg/mL (active ingredients)
Description: The formulation of emulsifiable concentrate is the same as that in Embodiment 3.
The variety of flax is Zhangya No. 2. 10% of 3-(3',4'-methylenedioxy phenyl)-N-n-propyl acrylamide EC and 14% of 3-(3',4'-methylenedioxy phenyl)-piperidine acrylate EC were both diluted at a concentration of 0.50 mg/mL (active ingredients); the control agent, 430 g/L of tebuconazole SC, was also diluted at a concentration of 0.50 mg/mL (active ingredients); additionally clear water was used as the control. The first application was started at the first appearance of spots for flax powdery mildew (Oidium lini) (natural incidence), and the second application was carried out 10 days later. The instrument for application was a WS-18D knapsack electric sprayer, which employed a cone nozzle. Each agent was formulated into the desired concentrations according to the usage amount of the control clear water. Both sides of the leaves were sprayed evenly. 10 days after the second application, the number of sick leaves at each grade of powdery mildew was investigated for the whole plant following the grading standard of 9 grades, to calculate the disease index and the control effect.

[1] = tested on: zucchini, cucumber, flax, and tomato; assay: Crop safety in the field efficiency tests; type: in vivo; details: at the test doses
Description: The variety of zucchini was Zaoqing F1 (manufactured by Wuwei Dadi Seed Industry Co., Ltd.), which was sown on July 29th, 2016. The first application was started on August 26th, at the early onset of powdery mildew (the average disease index is 10.07). The instrument for application was Agrolex HD 400 Model hand operating knapsack sprayer, which employed a cone nozzle. Each agent was formulated into the desired concentrations according to the usage amount of the control clear water. Both sides of the leaves were sprayed evenly so that the leaves were wetted by the liquor without loss. 10% of 3-(3',4'-methylenedioxy phenyl)-N-n-propyl acrylamide EC and 14% of 3-(3',4'-methylenedioxy phenyl)-piperidine acrylate EC were both diluted at a concentration of 0.50 mg/mL (active ingredients); the control agent, 430 g/L of tebuconazole SC (manufactured by Yantai Keda Chemical Co., Ltd.) was also diluted at a concentration of 0.50 mg/mL (active ingredients); additionally clear water was used as the control. Thereafter, applications were conducted every 7 days consecutively for 4 times. 10 days after the last application, the number of sick leaves at each grade of powdery mildew was investigated for the whole plant following the grading standard of 9 grades, to calculate the disease index and the control effect.
The variety of flax is Zhangya No. 2. […]

Phytophthora infestans = assay: microbe, parasite or virus in culture; type: cell-based; details: 1 mg/mL
[2] = tested on: Erysiphe cucurbitacearum or Sphaerotheca cucurbitae; assay: In-vivo greenhouse control of zucchini powdery mildew
Description: 3.88 g of 3-(3',4'-methylenedioxy phenyl)-N-n-propyl acrylamide was weighed and dissolved in 25 g of absolute ethyl alcohol, then 6 g of emulsifier 0203B was added, and mixed uniformly with stirring to get 10% of 3-(3',4'-methylenedioxy phenyl)-N-n-propyl acrylamide EC.
5.61 g of 3-(3',4'-methylenedioxy phenyl)-piperidine acrylate was weighed and dissolved in 25 g of absolute ethyl alcohol, then 6 g of emulsifier 0203B was added, and mixed uniformly with stirring to get 14% of 3-(3',4'-methylenedioxy phenyl)-piperidine acrylate EC.
Zucchini (Variety: Wuwei Xianglin extra-early 1st generation) was cultured in pots in a greenhouse, and inoculated with Erysiphe cucurbitacearum or Sphaerotheca cucurbitae at the stage of 3 to 4 leaves. The first application was started at the early onset (onset at the first true leaf: first appearance of spots), comprising 10% of 3-(3',4'-methylenedioxy phenyl)-N-n-propyl acrylamide EC and 14% of 3-(3',4'-methylenedioxy phenyl)-piperidine acrylate EC, which were both diluted at four concentrations of 0.50, 0.333, 0.25, 0.20 mg/mL (active ingredients), additionally clear water was used as the control. Both sides of the leaves were sprayed evenly with a small hand-held sprayer so that the leaves were wetted by the liquor without loss. Applications were conducted every 7 days consecutively for 4 times. 10 days after the fourth application, the number of sick leaves at each grade of powdery mildew was investigated for the whole plant following the grading standard of 9 grades, to calculate the disease index and the control effect. The computational formula is as below: Disease index = [(Number of sick leaves at each grade×Corresponding grade value)/(Total number of investigated leaves×9)] × 100; [formula] Control effect = (Disease index of the clear water control−Treated disease index)/Disease index of the clear water control × 100. [formula]

Pythium ultimum = assay: Supplementary ex vivo determination of antifungal activity; type: cell-based; details: compared with carbendazim
Description: The inhibition of samples for testing on the mycelial growth of plant pathogenic fungi for testing is determined with a growth rate method. 3-(3',4'-methylenedioxy phenyl)-N-n-propyl acrylamide, 3-(3',4'-methylenedioxy phenyl)-piperidine acrylate and five control agents are dissolved with dimethyl sulfoxide (DMSO), then formulated at 5-7 concentrations of different gradients for test following the trial test results, with the same concentration of DMSO as the control solvent, each treatment in triplicate. Fungal cakes with a diameter of 4 mm are taken from the edge of the colony, inoculated into the center of a PDA plate containing different agents of different concentrations and the DMSO control, with one piece of fungal cake inoculated in each plate (with a diameter of […]), and incubated in a constant temperature incubator at a temperature of 22±1.5°C. 7 days later (10-20 days may be needed for some pathogenic fungi), the diameter of the colony is measured with a cross over method according to the mycelial growth profile of the control pathogenic fungi, then the inhibition rate of mycelial growth is calculated.

[3] = 0.333 mg/mL (active ingredients)
[4] = 0.50 mg/mL (active ingredients), spray every 7 days, 4 times

| Structure (SMILES) | Control Effect (Oidium lini) | safety for zucchini, cucumber, flax, and tomato [1] | Average Diameter of the Colony (Phytophthora infestans) | Control Effect [2, 3] | Control Effect [2, 4] | antifungal activity against Pythium ultimum (Pythium ultimum) |
| --- | --- | --- | --- | --- | --- | --- |
| CCCNC(=O)/C=C/c1ccc2c(c1)OCO2 [3-(3',4'-methylenedioxyphenyl)-N-n-propyl acrylamide] | 83.70% | safe for zucchini, cucumber, flax, and tomato | 0.00 cm | 77.13% | 91.09% | superior to that of the control agent, carbendazim |
| O=C(/C=C/c1ccc2c(c1)OCO2)N1CCCCC1 [3-(3',4'-methylenedioxyphenyl)-piperidine acrylate] | 41.82% | safe for zucchini, cucumber, flax, and tomato | 0.00 cm | 67.06% | 67.06% and 87.13% | superior to that of the control agent, carbendazim |
